Reference: patent publication US20200016076A1, “COMPOSITION FOR THE TREATMENT OF DUCHENNE MUSCULAR DYSTROPHY” (Summit (Oxford) Limited, priority 2016, published 2020)
≈ marks a conversion by molar mass, not a printed value.

Key:
[1] = Solubility of ezutromid Form I polymorph in pharmaceutically-acceptable solvents at 20° C. (HPLC of saturated solutions); format: physicochemical; conditions: 1-propanol; 4 hours equilibration
Procedure: In each case, about 25 mg of drug substance was allowed to equilibrate with 250 μL of solvent over 4 hours. The resulting saturated solutions were filtered and analysed by HPLC.

[2] = Gravimetric vapour sorption analysis; format: physicochemical
Text: Form I was subjected to gravimetric vapour sorption analysis, ramping profile from 0 to 90% RH at 10% RH increments.

mouse models of DMD = conditions: with corticosteroids including prednisone, prednisolone and deflazacort; WO2009/019504; cited from earlier work

With `CCS(=O)(=O)c1ccc2oc(-c3ccc4ccccc4c3)nc2c1` [ezutromid, 5-(ethylsulfonyl)-2-(naphthalen-2-yl)benzo[d]oxazole] the “Solubility at 20° C.” value [1] was 790 µg/mL (≈ 2340 µM), the Hygroscopicity ([2]; based on gravimetric vapour sorption) was “not hygroscopic” and the Moisture absorbed ([2]; up to 90% RH, 0 to 90% RH at 10% RH increments) was “no more than 0.25 % by weight”. For the same compound, the “Reduction of exercise-induced fatigue with corticosteroids” value (mouse models of DMD) was “acts in synergy with corticosteroids”.
